Laboratory results reported in patent US6365619B1, “Treatment of arteriosclerosis” (Novartis AG, priority 1999, dated 2002).

Assays:
[1] = system: neointimal formation in a mouse model of carotid artery transplantation; test: Murine carotid artery loop transplantation: neointimal formation (transplant-associated arteriosclerosis); format: in vivo; conditions: mean±SD
Excerpt: The effect of compound 369 (VLA-4 antagonist) and compound 741 (VCAM-1 inhibitor) on the development of transplant-associated arteriosclerosis as measured by neointimal formation in a mouse model of carotid artery transplantation is investigated as mono-, combined, and tolerance induction therapy. Grafts are harvested at 30 days post-transplantation.
A murine model of accelerated transplant arteriosclerosis is used. Carotid arteries are allografted from B10.A (2R) to B10.BR mice, a commercially available strain combination that consistently results in neointimal formation 30 days after transplantation. The procedure is performed on anesthetized mice under a surgical dissecting microscope. A midline incision is made on the ventral side of neck from the suprasternal notch to the chin. The left carotid artery is gently dissected from the bifurcation in the distal end toward the proximal end as far as is technically possible. The artery is then occluded with two microvascular clamps, one at each end, and two longitudinal arteriotomies (0.5 to 0.6 mm) are made with a fine needle and scissors. In the donor mouse both the left and right carotid arteries are fully dissected from the arch to the bifurcation. The graft is then transplanted paratopically into the recipient in an end-to-side anastamosis with 11/0 continuous suture, and the skin incision is closed with a 5/0 interrupted suture. […] Vascular grafts are harvested 30 days after transplantation, a point at which a fully developed, nearly occlusive neointima is formed.
Compound 369: In the monotherapy experiments, compound 369 is administered three times per day subcutaneously (s.c.) for a total daily dose of 90 mg/kg/day.
Compound 741: Compound 741 is administered continuously via alzet pump in a dose of 5.0, 1.0, and 0.5 mg/kg/day, respectively.
Anti VLA-4 Mab: The anti VLA-4 antibody is administered 100 μg/mouse/d i.p.
A fixed dose of compound 369 is given as a total daily dose of 60 mg/kg/day s.c. and compound 741 is administered continuously via alzet pump at a dose of 5.0, 1.0, and 0.5 mg/kg/day, respectively.
Compound 369 (60 mg/kg/d) and compound 741 (5 mg/kg/d) are given simultaneously for the first 10 days only.
In all cases, allografts are harvested at day 30. […]
Morphometrical analysis is performed on VerHoeff stained paraffin sections using a computer-assisted image analysis system. The areas of the neointima are measured by computerized planimetry of sections obtained approximately 150, 300, and 450 μm from the center of the graft.
Data from morphometric analyses are reported as the neointima area on cross-section determined by subtracting the new lumen area measurement from the internal elastic lamina (IEL) area measurement for each animal. […]

[2] = Dissolution of compound 741 in dosing vehicle; format: physicochemical; conditions: 1:1 mixture of CsA placebo solution (Cremphor, ethanol) and propylene glycol
Description: Compound 741 is dissolved in a 1:1 mixture of CsA placebo solution (each mL contains 650 mg of Cremphor and 32.9% ethanol) and propylene glycol. Compound 741 is very soluble in this mixture and the final solution is clear.

Row | solubility [2] | Compound | neointima area on cross-section ([1]; monotherapy compound 369 90 mg/kg/d s.c. (three times per day), allograft harvested day 30) | neointima area on cross-section ([1]; monotherapy Cmpd.741 0.5 mg/kg/d continuously via alzet pump, allograft harvested day 30) | neointima area on cross-section ([1]; monotherapy Cmpd.741 1 mg/kg/d continuously via alzet pump, allograft harvested day 30) | neointima area on cross-section ([1]; monotherapy Cmpd.741 5 mg/kg/d continuously via alzet pump, B10.A (2R) to B10.BR allograft harvested day 30)
1 |  | COCCCN(CC(=O)N[C@@H](CC(=O)O)c1ccc(OC)c(OC)c1)C(=O)Cc1ccc(NC(=O)Nc2ccccc2C)cc1 [Cmpd.369, (S)-β-[3-Methoxypropyl)[[4-[(2-methylphenylaminocarbonylamino)-phenyl]acetyl]amino]acetylamino-3,4-dimethoxy-benzenepropanoic Acid] | 19,874 μm^2 |  |  | 
2 | very soluble | CCCCC(C)CC1NC(=O)C(Cc2cn(OC)c3ccccc23)N(C)C(=O)C(CC(C)C)NC(=O)C(CC(C)C)N(C)C(=O)C(CC(C)CCCC)NC(=O)C(CCC(=O)OCCC)OC(=O)C(C)N(C)C1=O (centres unmarked) [Cmpd.741] |  | 30,926 μm^2 | 32,249 μm^2 | 18,804 μm^2
